{"source": "patent US10441787B2", "about": "“Neuromodulation device” (GALVANI BIOE[…], priority 2015, dated 2019)", "tested_on": "guinea pig airway smooth muscle tone", "experiment": "In-vivo model of baseline airway smooth muscle tone", "parameters": "dose or concentration left out as unconfirmed", "conditions": "anesthetized guinea pigs; atropine delivered selectively to the trachea via Krebs buffer perfusion; isometric tension of tracheal rings 6 and 7", "description": "FIG. 10: Schematic illustration of the method for assessing vagally-mediated baseline airay smooth muscle tone in anesthetized guinea pigs. (As described in, Mazzone and Canning, Curr. Protoc. Pharmacol. 2002. May 1; Chapter 5: Unit 5.26.)\nMethods for studying vagally-mediated bronchospasm in anesthetized guinea pigs have been described in detail elsewhere (Mazzone and Canning, Curr Protoc Pharmacol. 2002 May 1; Chapter 5:Unit 5.26; Auton Neurosci. 2002 Aug. 30; 99(2):91-101) and shown in FIG. 10. Guinea pigs are anesthetized with urethane (1.5 g/kg ip). The trachea and vagus nerves are visualized by a midline incision in the neck. The trachea is cannulated and connected to a constant volume ventilator (6 mL/kg body weight). The animals are then paralyzed with succinylcholine (2.5 mg/kg sc). An artery and vein are cannulated to monitor cardiovascular parameters and for drug delivery. The vagus nerves are placed on bipolar electrodes. […] Bronchospasm is recorded as a percentage increase in pulmonary inflation pressure.\nUsing the method illustrated in FIG. 10, the portion of the trachea where isometric tension was measured (rings 6 and 7 caudal to the larynx) was perfused with warmed (37° C.), oxygenated Krebs buffer, which was used for selective delivery of atropine ([…]) to the trachea. […]", "note": "“Also recorded” adds a separate entry of the source.", "data": [{"smiles": "CN1[C@@H]2CC[C@H]1C[C@@H](OC(=O)C(CO)c1ccccc1)C2", "note": "(stereo partly shown) [atropine]", "values": [{"measurement": "baseline airway smooth muscle tone", "value": "decrease in baseline airway smooth muscle tone; also recorded: Inhibition of guinea pig airway smooth muscle tone"}]}]}
